Reference: US5684166A, “(-3-ketotetrahydrofuran-2-yl) ethanal derivatives and a method for their preparation” (Biocure Limited, priority 1993, dated 1997)

What was measured:
Assay type in all cases: cell-based
[1] = test system: HeLa (Human cervical carcinoma); test: in vitro culture cell number, HeLa
Description: (§1) Substances having the structures of the synthesised target material when added to in vitro cultures of various cancer cell lines produced a dose-related cell death as indicated in the Tables below.

[2] = test system: MOLT4 (Human Tcell leukaemia); test: in vitro culture cell number, MOLT4
Description: as §1

[3] = test system: WIL2 (Human B lymphoblastoma); test: in vitro culture cell number, WIL2
Description: as §1

[4] = test system: PA-1 (Human ovarian teratocarcinoma); test: in vitro culture cell number, PA-1
Description: as §1

[5] = test system: KHOS/NP (Human osteocarcinoma); test: in vitro culture cell number, KHOS/NP
Description: as §1

[6] = test system: CaSki (Human cervical epidermoid carcinoma); test: in vitro culture cell number, CaSki
Description: as §1

[7] = test system: PC3 (Human prostate adenocarcinoma); test: in vitro culture cell number, PC3
Description: as §1

[8] = test system: WiDr (Human colon adenocarcinoma); test: in vitro culture cell number, WiDr
Description: as §1

[9] = test system: G361 (Human malignant melanoma); test: in vitro culture cell number, G361
Description: as §1

[10] = Homo sapiens, 2.0 μg/ml, P < 0.001, read-out: Cell No (% Control)
[11] = Homo sapiens, 5.0 μg/ml, P < 0.001, read-out: Cell No (% Control)
[12] = Homo sapiens, 7.5 μg/ml, P < 0.001, read-out: Cell No (% Control)
[13] = Homo sapiens, 10.0 μg/ml, P < 0.001, read-out: Cell No (% Control)
[14] = Homo sapiens, 20.0 μg/ml, P < 0.001, read-out: Cell No (% Control)

For `O=CCC1OCCC1=O` (racemic) [Compound 8, (3-ketotetrahydrofuran-2-yl)ethanal], the “Cell No” value ([1]; 0.5 μg/ml) was 12165, the “Cell No” value ([1]; 1.0 μg/ml) was 10932 and the “Cell No” value ([1]; 1.5 μg/ml) was 7453. For the same compound, the “Cell No” value ([1]; 2.0 μg/ml) was 4675, the “Cell No” value ([1]; 5.0 μg/ml) was 201 and the activity at 0.5 µg/mL ([1]; Homo sapiens, 0.5 μg/ml, P < 0.001, read-out: Cell No (% Control)) was 83.9%. The activity at 1 µg/mL ([1]; Homo sapiens, 1.0 μg/ml, P < 0.001, read-out: Cell No (% Control)) was 75.4%, the activity at 1.5 µg/mL ([1]; Homo sapiens, 1.5 μg/ml, P < 0.001, read-out: Cell No (% Control)) was 51.4% and the activity at 2 µg/mL [1, 10] was 32.2%. For the same compound, the activity at 5 µg/mL [1, 11] was 1.4%, the activity at 0.5 µg/mL ([2]; Homo sapiens, MOLT-4, MOLT4, 0.5 μg/ml, P < 0.001, read-out: Cell No (% Control)) was 91.2% and the activity at 1 µg/mL ([2]; Homo sapiens, MOLT-4, MOLT4, 1.0 μg/ml, P < 0.001, read-out: Cell No (% Control)) was 78.8%. For the same compound, the activity at 1.5 µg/mL ([2]; Homo sapiens, MOLT-4, MOLT4, 1.5 μg/ml, P < 0.001, read-out: Cell No (% Control)) was 53.7%, the activity at 2 µg/mL ([2]; Homo sapiens, MOLT-4, MOLT4, 2.0 μg/ml, P < 0.001, read-out: Cell No (% Control)) was 34.2% and the activity at 5 µg/mL ([2]; Homo sapiens, MOLT-4, MOLT4, 5.0 μg/ml, P < 0.001, read-out: Cell No (% Control)) was 12.4%. The “Cell No” value ([2]; MOLT4, 0.5 μg/ml) was 4543, the “Cell No” value ([2]; MOLT4, 1.0 μg/ml) was 3920 and the “Cell No” value ([2]; MOLT4, 1.5 μg/ml) was 2674. The “Cell No” value ([2]; MOLT4, 2.0 μg/ml) was 1701, the “Cell No” value ([2]; MOLT4, 5.0 μg/ml) was 619 and the activity at 0.5 µg/mL ([3]; Homo sapiens, WIL2, 0.5 μg/ml, P < 0.001, read-out: Cell No (% Control)) was 85.3%. It also gave an activity at 1 µg/mL ([3]; Homo sapiens, WIL2, 1.0 μg/ml, P < 0.001, read-out: Cell No (% Control)) of 58.8%, an activity at 1.5 µg/mL ([3]; Homo sapiens, WIL2, 1.5 μg/ml, P < 0.001, read-out: Cell No (% Control)) of 24.9% and an activity at 2 µg/mL ([3]; Homo sapiens, WIL2, 2.0 μg/ml, P < 0.001, read-out: Cell No (% Control)) of 16.1%. The activity at 5 µg/mL ([3]; Homo sapiens, WIL2, 5.0 μg/ml, P < 0.001, read-out: Cell No (% Control)) was 7.1%, the “Cell No” value ([3]; WIL2, 0.5 μg/ml) was 8431 and the “Cell No” value ([3]; WIL2, 1.0 μg/ml) was 5810. The “Cell No” value ([3]; WIL2, 1.5 μg/ml) was 2459, the “Cell No” value ([3]; WIL2, 2.0 μg/ml) was 1591 and the “Cell No” value ([3]; WIL2, 5.0 μg/ml) was 705. For the same compound, the activity at 0.5 µg/mL ([4]; Homo sapiens, PA-1, 0.5 μg/ml, P < 0.001, read-out: Cell No (% Control)) was 84.3%, the activity at 1 µg/mL ([4]; Homo sapiens, PA-1, 1.0 μg/ml, P < 0.001, read-out: Cell No (% Control)) was 84.9% and the activity at 1.5 µg/mL ([4]; Homo sapiens, PA-1, 1.5 μg/ml, P < 0.001, read-out: Cell No (% Control)) was 77.3%. The activity at 2 µg/mL ([4]; Homo sapiens, PA-1, 2.0 μg/ml, P < 0.001, read-out: Cell No (% Control)) was 72.4%, the activity at 5 µg/mL ([4]; Homo sapiens, PA-1, 5.0 μg/ml, P < 0.001, read-out: Cell No (% Control)) was 20.9% and the “Cell No” value ([4]; PA-1, 0.5 μg/ml) was 11346. The “Cell No” value ([4]; PA-1, 1.0 μg/ml) was 11276, the “Cell No” value ([4]; PA-1, 1.5 μg/ml) was 10338 and the “Cell No” value ([4]; PA-1, 2.0 μg/ml) was 9678. For the same compound, the “Cell No” value ([4]; PA-1, 5.0 μg/ml) was 2729, the “Cell No” value ([5]; 2.0 μg/ml) was 9442 and the “Cell No” value ([5]; 5.0 μg/ml) was 6356. The “Cell No” value ([5]; 7.5 μg/ml) was 2469, the “Cell No” value ([5]; 10.0 μg/ml) was 862 and the “Cell No” value ([5]; 20.0 μg/ml) was 380. The activity at 2 µg/mL [5, 10] was 84.5%, the activity at 5 µg/mL [5, 11] was 56.9% and the activity at 7.5 µg/mL [5, 12] was 22.1%. For the same compound, the activity at 10 µg/mL [5, 13] was 7.7%, the activity at 20 µg/mL [5, 14] was 3.4% and the “Cell No” value ([6]; 2.0 μg/ml) was 4401. The “Cell No” value ([6]; 5.0 μg/ml) was 4617, the “Cell No” value ([6]; 7.5 μg/ml) was 3495 and the “Cell No” value ([6]; 10.0 μg/ml) was 2800. For the same compound, the “Cell No” value ([6]; 20.0 μg/ml) was 234, the activity at 2 µg/mL ([6]; Homo sapiens, Ca-Ski, 2.0 μg/ml, P < 0.001, read-out: Cell No (% Control)) was 89.1% and the activity at 5 µg/mL ([6]; Homo sapiens, Ca-Ski, 5.0 μg/ml, read-out: Cell No (% Control)) was 93.5%. For the same compound, the activity at 7.5 µg/mL ([6]; Homo sapiens, Ca-Ski, 7.5 μg/ml, P < 0.001, read-out: Cell No (% Control)) was 70.8%, the activity at 10 µg/mL ([6]; Homo sapiens, Ca-Ski, 10.0 μg/ml, P < 0.001, read-out: Cell No (% Control)) was 56.7% and the activity at 20 µg/mL ([6]; Homo sapiens, Ca-Ski, 20.0 μg/ml, P < 0.001, read-out: Cell No (% Control)) was 4.7%. For the same compound, the activity at 2 µg/mL ([7]; Homo sapiens, PC-3, PC3, 2.0 μg/ml, P < 0.05, read-out: Cell No (% Control)) was 87.9%, the activity at 5 µg/mL ([7]; Homo sapiens, PC-3, PC3, 5.0 μg/ml, P < 0.001, read-out: Cell No (% Control)) was 67.4% and the activity at 7.5 µg/mL ([7]; Homo sapiens, PC-3, PC3, 7.5 μg/ml, P < 0.001, read-out: Cell No (% Control)) was 32.9%. For the same compound, the activity at 10 µg/mL ([7]; Homo sapiens, PC-3, PC3, 10.0 μg/ml, P < 0.001, read-out: Cell No (% Control)) was 9.3%, the activity at 20 µg/mL ([7]; Homo sapiens, PC-3, PC3, 20.0 μg/ml, P < 0.001, read-out: Cell No (% Control)) was 5.9% and the “Cell No” value ([7]; PC3, 2.0 μg/ml) was 5908. The “Cell No” value ([7]; PC3, 5.0 μg/ml) was 4532, the “Cell No” value ([7]; PC3, 7.5 μg/ml) was 2211 and the “Cell No” value ([7]; PC3, 10.0 μg/ml) was 627. The “Cell No” value ([7]; PC3, 20.0 μg/ml) was 399, the “Cell No” value ([8]; 2.0 μg/ml) was 5845 and the “Cell No” value ([8]; 5.0 μg/ml) was 5762. For the same compound, the “Cell No” value ([8]; 7.5 μg/ml) was 5097, the “Cell No” value ([8]; 10.0 μg/ml) was 3826 and the “Cell No” value ([8]; 20.0 μg/ml) was 178. It also gave an activity at 2 µg/mL ([8]; Homo sapiens, 2.0 μg/ml, P < 0.05, read-out: Cell No (% Control)) of 90.9%, an activity at 5 µg/mL ([8]; Homo sapiens, 5.0 μg/ml, P < 0.05, read-out: Cell No (% Control)) of 89.6% and an activity at 7.5 µg/mL [8, 12] of 79.3%. The activity at 10 µg/mL [8, 13] was 59.5%, the activity at 20 µg/mL [8, 14] was 2.8% and the “Cell No” value ([9]; G361, 2.0 μg/ml) was 1679. For the same compound, the “Cell No” value ([9]; G361, 5.0 μg/ml) was 314, the “Cell No” value ([9]; G361, 7.5 μg/ml) was 159 and the “Cell No” value ([9]; G361, 10.0 μg/ml) was 142. For the same compound, the “Cell No” value ([9]; G361, 20.0 μg/ml) was 230, the activity at 2 µg/mL ([9]; Homo sapiens, G-361, G361, 2.0 μg/ml, P < 0.001, read-out: Cell No (% Control)) was 35.8% and the activity at 5 µg/mL ([9]; Homo sapiens, G-361, G361, 5.0 μg/ml, P < 0.001, read-out: Cell No (% Control)) was 6.7%. The activity at 7.5 µg/mL ([9]; Homo sapiens, G-361, G361, 7.5 μg/ml, P < 0.001, read-out: Cell No (% Control)) was 3.4%, the activity at 10 µg/mL ([9]; Homo sapiens, G-361, G361, 10.0 μg/ml, P < 0.001, read-out: Cell No (% Control)) was 3% and the activity at 20 µg/mL ([9]; Homo sapiens, G-361, G361, 20.0 μg/ml, P < 0.001, read-out: Cell No (% Control)) was 4.9%.
